Measured values reported in patent US20260297070A1, “CYCLIC [COMPOUND LEFT OUT] WRN INHIBITORS” (Nimbus Wadjet, Inc., priority 2023, published 2026).

Each molecule was assayed against T1, human Werner helicase (WRN-BV08, Uniprot Q14191, amino acids 517-1235 with L1074F point mutation) (Homo sapiens, UniProt Q14191, L1074F) (assay: WRN (BV08) ADP-Glo Assay). Conditions: 0.15 nM WRN, 5 μM ATP, 0.1 nM DNA duplex, 15 min preincubation, 60 min at 25° C., pH 7.5, 1% DMSO; read-out: ADP-Glo_hWRN_IC50.
T1 construct: Uniprot Q14191, amino acids 517-1235 with L1074F point mutation; TEV-cleavable 8×His (C, cleaved yes); made in house; host or cells: Sf9 insect cells (baculovirus)
T1 sequence (Q14191 with tags, fused parts or gaps L1074F limits assumed): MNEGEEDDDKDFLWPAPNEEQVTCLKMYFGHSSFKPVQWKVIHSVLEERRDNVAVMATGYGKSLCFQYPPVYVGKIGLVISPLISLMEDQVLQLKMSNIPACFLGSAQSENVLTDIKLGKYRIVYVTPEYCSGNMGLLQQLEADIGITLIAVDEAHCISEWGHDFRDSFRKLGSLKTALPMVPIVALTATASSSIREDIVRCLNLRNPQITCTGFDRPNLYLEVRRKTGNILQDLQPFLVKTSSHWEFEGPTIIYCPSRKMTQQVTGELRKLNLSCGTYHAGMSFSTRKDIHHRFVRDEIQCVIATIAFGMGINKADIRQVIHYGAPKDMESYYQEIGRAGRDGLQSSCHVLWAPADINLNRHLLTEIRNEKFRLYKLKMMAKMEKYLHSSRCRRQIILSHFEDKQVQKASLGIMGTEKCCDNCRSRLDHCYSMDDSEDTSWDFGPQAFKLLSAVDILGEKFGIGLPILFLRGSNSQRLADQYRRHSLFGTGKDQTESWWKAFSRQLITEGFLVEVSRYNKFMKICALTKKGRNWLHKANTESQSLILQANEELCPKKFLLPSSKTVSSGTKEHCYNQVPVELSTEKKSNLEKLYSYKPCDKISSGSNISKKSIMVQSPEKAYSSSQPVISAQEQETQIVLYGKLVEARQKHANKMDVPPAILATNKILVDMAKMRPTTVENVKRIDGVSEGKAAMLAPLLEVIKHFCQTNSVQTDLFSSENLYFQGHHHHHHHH
Assay type: biochemical
Outline: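 ADP produced by WRN helicase fragment 517-1235 (L1074F, baculovirus/Sf9, untagged) read by ADP-Glo luminescence after 60 min at 25 °C with 5 μM ATP and 0.1 nM duplex DNA, following 15 min compound preincubation. Final enzyme 0.15 nM in Bicine pH 7.5 buffer, 1% DMSO; 20 μM NSC-617145 defined full inhibition.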

Compound | IC50 [µM]
O=C(Cc1ccc(-n2cccc2)cc1)N(Cc1ccccc1F)C1C=CS(=O)(=O)C1 (stereo not shown) [I-257, N-(1,1-dioxo-2,3-dihydro-1lambda6-thiophen-3-yl)-N-[(2-fluorophenyl)methyl]-2-[4-(1H-pyrrol-1-yl)phenyl]acetamide] | 5 to 10
O=C(N(Cc1ccncc1)C1C=CS(=O)(=O)C1)C12CC(c3cccc(C(F)(F)F)c3)(C1)C2F (stereo not shown) [I-586, N-(1,1-dioxo-2,3-dihydro-1lambda6-thiophen-3-yl)-2-fluoro-N-[(pyridin-4-yl)methyl]-3-[3-(trifluoromethyl)phenyl]bicyclo[1.1.1]pentane-1-carboxamide] | > 50
O=C(C1CCc2ccc(Br)cc21)N(Cc1ccncc1)C1C=CS(=O)(=O)C1 (stereo not shown) [I-658, 6-bromo-N-(1,1-dioxo-2,3-dihydro-1lambda6-thiophen-3-yl)-N-[(pyridin-4-yl)methyl]-2,3-dihydro-1H-indene-1-carboxamide] | > 50
O=C(Cc1ccc(-n2cccc2)cc1)N(Cc1cccc2[nH]ccc12)C1C=CS(=O)(=O)C1 (stereo not shown) [I-497, N-(1,1-dioxo-2,3-dihydro-1lambda6-thiophen-3-yl)-N-[(1H-indol-4-yl)methyl]-2-[4-(1H-pyrrol-1-yl)phenyl]acetamide] | > 50
N#Cc1cc(F)ccc1-c1ccc(CC(=O)N(Cc2ccncc2)C2C=CS(=O)(=O)C2)cc1 (stereo not shown) [I-348, 2-{2′-cyano-4′-fluoro-[1,1′-biphenyl]-4-yl}-N-(1,1-dioxo-2,3-dihydro-1lambda6-thiophen-3-yl)-N-[(pyridin-4-yl)methyl]acetamide] | 10 to 50
O=C(Cc1ccc(-c2ccc(F)cc2)c(C(F)F)c1)N(Cc1ccncc1)C1C=CS(=O)(=O)C1 (stereo not shown) [I-401, 2-[2-(difluoromethyl)-4′-fluoro-[1,1′-biphenyl]-4-yl]-N-(1,1-dioxo-2,3-dihydro-1lambda6-thiophen-3-yl)-N-[(pyridin-4-yl)methyl]acetamide] | > 50
O=C(Cc1nc(C2CC2)cs1)N(Cc1ccncc1)C1C=CS(=O)(=O)C1 (stereo not shown) [I-580, 2-(4-cyclopropyl-1,3-thiazol-2-yl)-N-(1,1-dioxo-2,3-dihydro-1lambda6-thiophen-3-yl)-N-[(pyridin-4-yl)methyl]acetamide] | > 50
O=C(Cn1cc(Cl)cn1)N(Cc1ccncc1)C1C=CS(=O)(=O)C1 (stereo not shown) [I-427, 2-(4-chloro-1H-pyrazol-1-yl)-N-(1,1-dioxo-2,3-dihydro-1lambda6-thiophen-3-yl)-N-[(pyridin-4-yl)methyl]acetamide] | > 50
COc1cc(CN(C(=O)Cn2nc(C)c3cc(C(F)(F)F)ccc32)[C@@H]2C=CS(=O)(=O)C2)ccn1 [I-722, N-[(3R)-1,1-dioxo-2,3-dihydro-1lambda6-thiophen-3-yl]-N-[(2-methoxypyridin-4-yl)methyl]-2-[3-methyl-5-(trifluoromethyl)-1H-indazol-1-yl]acetamide] | > 50
COc1cc(CN(C(=O)C(OC2CS(=O)(=O)C2)c2ccc(-c3ccc(F)c(F)c3)cc2F)[C@@H]2C=CS(=O)(=O)C2)ccn1 (single isomer, unassigned) [I-835, (2R*)-2-[(1,1-dioxo-1lambda6-thietan-3-yl)oxy]-N-[(3R)-1,1-dioxo-2,3-dihydro-1lambda6-thiophen-3-yl]-N-[(2-methoxypyridin-4-yl)methyl]-2-{3,3′,4′-trifluoro-[1,1′-biphenyl]-4-yl}acetamide] | 5 to 10
O=C(Cc1ncc(-c2ccc(F)c(F)c2)cc1F)N(Cc1ccnc(OC(F)F)c1)C1C=CS(=O)(=O)C1 (stereo not shown) [I-698, N-{[2-(difluoromethoxy)pyridin-4-yl]methyl}-2-[5-(3,4-difluorophenyl)-3-fluoropyridin-2-yl]-N-(1,1-dioxo-2,3-dihydro-1lambda6-thiophen-3-yl)acetamide] | 0.5 to 5
O=C(C1CC(c2ccccc2)C1)N(Cc1ccncc1)C1C=CS(=O)(=O)C1 (stereo not shown) [I-570, N-(1,1-dioxo-2,3-dihydro-1lambda6-thiophen-3-yl)-3-phenyl-N-[(pyridin-4-yl)methyl]cyclobutane-1-carboxamide] | > 50
COc1cc(CN(C(=O)Cc2ncc(-c3ccc(F)c(F)c3)cc2F)C2C=CS(=O)(=O)C2)ccn1 (stereo not shown) [I-129, 2-[5-(3,4-difluorophenyl)-3-fluoropyridin-2-yl]-N-(1,1-dioxo-2,3-dihydro-1lambda6-thiophen-3-yl)-N-[(2-methoxypyridin-4-yl)methyl]acetamide] | 0.5 to 5
COc1ccc(CN(C(=O)Cn2cc(-c3ccc(F)c(F)c3)cn2)C2C=CS(=O)(=O)C2)cn1 (stereo not shown) [I-762, 2-[4-(3,4-difluorophenyl)-1H-pyrazol-1-yl]-N-(1,1-dioxo-2,3-dihydro-1lambda6-thiophen-3-yl)-N-[(6-methoxypyridin-3-yl)methyl]acetamide] | 0.5 to 5
O=C(Cc1coc(-c2ccc(F)cc2)n1)N(Cc1ccncc1)C1C=CS(=O)(=O)C1 (stereo not shown) [I-543, N-(1,1-dioxo-2,3-dihydro-1lambda6-thiophen-3-yl)-2-[2-(4-fluorophenyl)-1,3-oxazol-4-yl]-N-[(pyridin-4-yl)methyl]acetamide] | > 50
O=C(Cc1ccc(-n2cccc2)cc1F)N(Cc1ccc(Br)cc1)C1C=CS(=O)(=O)C1 (stereo not shown) [I-122, N-[(4-bromophenyl)methyl]-N-(1,1-dioxo-2,3-dihydro-1lambda6-thiophen-3-yl)-2-[2-fluoro-4-(1H-pyrrol-1-yl)phenyl]acetamide] | 0.5 to 5
O=C(Cn1cc2cc(C(F)(F)F)ccc2n1)N(Cc1ccncc1)C1C=CS(=O)(=O)C1 (stereo not shown) [I-589, N-(1,1-dioxo-2,3-dihydro-1lambda6-thiophen-3-yl)-N-[(pyridin-4-yl)methyl]-2-[5-(trifluoromethyl)-2H-indazol-2-yl]acetamide] | 0.5 to 5
O=C(Cn1nc(-c2ccccc2)ccc1=O)N(Cc1ccncc1)C1C=CS(=O)(=O)C1 (stereo not shown) [I-326, N-(1,1-dioxo-2,3-dihydro-1lambda6-thiophen-3-yl)-2-(6-oxo-3-phenyl-1,6-dihydropyridazin-1-yl)-N-[(pyridin-4-yl)methyl]acetamide] | 10 to 50

Continued, values first:

IC50 [µM] | Compound
< 0.5 | COc1cc(CN(C(=O)C(C(=O)N(C)C)c2ccc(-c3ccc(F)c(F)c3)cc2F)C2C=CS(=O)(=O)C2)ccn1 (stereo not shown) [I-37, N′-(1,1-dioxo-2,3-dihydro-1lambda6-thiophen-3-yl)-N′-[(2-methoxypyridin-4-yl)methyl]-N,N-dimethyl-2-{3,3′,4′-trifluoro-[1,1′-biphenyl]-4-yl}propanediamide]
< 0.5 | CN(C)C(=O)C(C(=O)N(Cc1ccnc(C(C)(C)O)c1)C1C=CS(=O)(=O)C1)c1ccc(-c2ccc(F)cc2)cc1F (single isomer, unassigned) [I-12, (2R**)-2-{3,4′-difluoro-[1,1′-biphenyl]-4-yl}-N-[(3R*)-1,1-dioxo-2,3-dihydro-1lambda6-thiophen-3-yl]-N-{[2-(2-hydroxypropan-2-yl)pyridin-4-yl]methyl}-N′,N′-dimethylpropanediamide]
< 0.5 | COc1cc(CN(C(=O)Cc2ccc(-c3ccc(F)c(F)c3)cc2F)C2C=CS(=O)(=O)C2)ccn1 (single isomer, unassigned) [I-35]
0.5 to 5 | COc1cc(CN(C(=O)C(OCCC#N)c2ccc(-c3ccc(F)c(F)c3)cc2F)[C@@H]2C=CS(=O)(=O)C2)ccn1 (stereo partly drawn) [I-744, 2-(2-cyanoethoxy)-N-[(3R)-1,1-dioxo-2,3-dihydro-1lambda6-thiophen-3-yl]-N-[(2-methoxypyridin-4-yl)methyl]-2-{3,3′,4′-trifluoro-[1,1′-biphenyl]-4-yl}acetamide]
0.5 to 5 | COc1cc(CN(C(=O)Cc2ccc(-n3cccc3)cc2)C2C=CS(=O)(=O)C2)ccn1 (stereo not shown) [I-156, N-(1,1-dioxo-2,3-dihydro-1lambda6-thiophen-3-yl)-N-[(2-methoxypyridin-4-yl)methyl]-2-[4-(1H-pyrrol-1-yl)phenyl]acetamide]
0.5 to 5 | COc1cc(CN(C(=O)Cc2ccc(C(C)(F)F)cc2)C2C=CS(=O)(=O)C2)ccn1 (stereo not shown) [I-117, 2-[4-(1,1-difluoroethyl)phenyl]-N-(1,1-dioxo-2,3-dihydro-1lambda6-thiophen-3-yl)-N-[(2-methoxypyridin-4-yl)methyl]acetamide]
< 0.5 | COc1cc(CN(C(=O)Cn2ncc(-c3ccc(F)c(F)c3)c2C)[C@@H]2C=CS(=O)(=O)C2)ccn1 [I-739, 2-[4-(3,4-difluorophenyl)-5-methyl-1H-pyrazol-1-yl]-N-[(3R)-1,1-dioxo-2,3-dihydro-1lambda6-thiophen-3-yl]-N-[(2-methoxypyridin-4-yl)methyl]acetamide]
< 0.5 | CN(C)C(=O)C(C(=O)N(Cc1nc(C2CC2)cs1)C1C=CS(=O)(=O)C1)c1ccc(-c2ccc(F)c(F)c2)cc1F (stereo not shown) [I-25, N′-[(4-cyclopropyl-1,3-thiazol-2-yl)methyl]-N′-(1,1-dioxo-2,3-dihydro-1lambda6-thiophen-3-yl)-N,N-dimethyl-2-{3,3′,4′-trifluoro-[1,1′-biphenyl]-4-yl}propanediamide]
< 0.5 | CC(C(=O)N(Cc1ccnc(C(C)(C)O)c1)C1C=CS(=O)(=O)C1)n1cc(-c2cc(F)c(F)c(F)c2)cn1 (single isomer, unassigned) [I-777, (2R*)-N-[(3R**)-1,1-dioxo-2,3-dihydro-1lambda6-thiophen-3-yl]-N-{[2-(2-hydroxypropan-2-yl)pyridin-4-yl]methyl}-2-[4-(3,4,5-trifluorophenyl)-1H-pyrazol-1-yl]propanamide]
< 0.5 | COc1cc(CN(C(=O)C(OCCO)c2ccc(-c3ccc(F)c(F)c3)cc2F)[C@@H]2C=CS(=O)(=O)C2)ccn1 (stereo partly drawn) [I-603, N-[(3R)-1,1-dioxo-2,3-dihydro-1lambda6-thiophen-3-yl]-2-(2-hydroxyethoxy)-N-[(2-methoxypyridin-4-yl)methyl]-2-{3,3′,4′-trifluoro-[1,1′-biphenyl]-4-yl}acetamide]
